Data reported in ChEMBL document CHEMBL6096664, “Discovery of novel KSP-targeting PROTACs with potent antitumor effects in vitro and in vivo” (Eur J Med Chem, 2025).

Experiments:
HCT-116 [1] = test: Induction of apoptosis in human HCT-116 cells assessed as necrotic cells at 10 nM incubated for 48 hrs by Annexin V-FITC/PI staining based flow cytometry analysis (reference value: 1.31 %); type: functional
HCT-116 [2] = test: Induction of apoptosis in human HCT-116 cells assessed as viable cells at 10 nM incubated for 48 hrs by Annexin V-FITC/PI staining based flow cytometry analysis (reference value: 94.31 %); type: functional; conditions: read-out: Activity
[3] = target: T1, Protein cereblon/Kinesin-like protein KIF11 (Homo sapiens, UniProt P52732+Q96SW2); test: PROTAC activity at CRBN/KSP in human HCT-116 cells assessed as induction of KSP degradation at 200 nM pretreated with MG-132 for 2 hrs followed by compound addition for 24 hrs by Western blot analysis; type: cell-based
Target sequence in this assay (P52732 whole entry, looked up): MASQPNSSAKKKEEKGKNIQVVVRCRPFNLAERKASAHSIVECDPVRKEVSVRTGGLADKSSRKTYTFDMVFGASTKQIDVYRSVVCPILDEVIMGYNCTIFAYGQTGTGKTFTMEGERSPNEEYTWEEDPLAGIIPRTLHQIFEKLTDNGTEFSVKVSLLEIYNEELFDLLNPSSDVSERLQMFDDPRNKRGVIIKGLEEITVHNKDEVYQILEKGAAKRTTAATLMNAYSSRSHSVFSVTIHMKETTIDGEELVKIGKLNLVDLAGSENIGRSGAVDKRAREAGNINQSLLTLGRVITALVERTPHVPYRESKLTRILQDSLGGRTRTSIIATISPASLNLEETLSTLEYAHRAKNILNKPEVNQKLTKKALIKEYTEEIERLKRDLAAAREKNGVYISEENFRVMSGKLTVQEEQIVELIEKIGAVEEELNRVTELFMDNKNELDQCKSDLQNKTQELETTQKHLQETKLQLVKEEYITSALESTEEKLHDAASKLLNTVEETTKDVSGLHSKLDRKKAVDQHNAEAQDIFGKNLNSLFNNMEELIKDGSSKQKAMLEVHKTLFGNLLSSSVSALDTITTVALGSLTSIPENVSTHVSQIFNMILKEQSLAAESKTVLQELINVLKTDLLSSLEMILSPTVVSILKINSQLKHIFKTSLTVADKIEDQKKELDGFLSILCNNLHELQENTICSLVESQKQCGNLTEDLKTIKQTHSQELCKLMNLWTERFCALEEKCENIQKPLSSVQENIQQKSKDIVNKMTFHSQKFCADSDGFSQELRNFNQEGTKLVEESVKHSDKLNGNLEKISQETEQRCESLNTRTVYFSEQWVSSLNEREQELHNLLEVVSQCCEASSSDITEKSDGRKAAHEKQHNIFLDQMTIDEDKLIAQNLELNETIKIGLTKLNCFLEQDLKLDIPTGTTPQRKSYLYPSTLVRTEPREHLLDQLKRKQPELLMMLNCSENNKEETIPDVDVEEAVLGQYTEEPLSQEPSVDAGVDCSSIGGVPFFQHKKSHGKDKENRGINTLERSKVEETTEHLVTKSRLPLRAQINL
Target sequence in this assay (Q96SW2 whole entry, looked up): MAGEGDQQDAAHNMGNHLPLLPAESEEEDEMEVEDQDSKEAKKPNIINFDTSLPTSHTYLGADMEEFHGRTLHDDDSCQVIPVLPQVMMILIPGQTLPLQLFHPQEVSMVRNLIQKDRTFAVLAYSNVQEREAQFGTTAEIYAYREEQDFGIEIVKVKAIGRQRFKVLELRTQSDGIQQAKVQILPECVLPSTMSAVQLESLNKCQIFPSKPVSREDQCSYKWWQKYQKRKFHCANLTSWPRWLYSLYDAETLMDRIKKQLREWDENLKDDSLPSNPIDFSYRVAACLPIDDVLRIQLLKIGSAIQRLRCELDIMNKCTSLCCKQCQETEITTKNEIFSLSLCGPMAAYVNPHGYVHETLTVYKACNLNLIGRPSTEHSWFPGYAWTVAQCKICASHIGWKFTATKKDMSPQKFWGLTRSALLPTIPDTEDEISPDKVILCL

[4] = target: T1, Protein cereblon/Kinesin-like protein KIF11; test: PROTAC activity at CRBN/KSP in human HCT-116 cells assessed as induction of KSP degradation incubated for 48 hrs by Western blot analysis; type: cell-based
[5] = target: T1, Protein cereblon/Kinesin-like protein KIF11; test: PROTAC activity at CRBN/KSP in human HCT-116 cells assessed as induction of KSP degradation by measuring maximal efficacy incubated for 48 hrs by Western blot analysis relative to control; type: cell-based
Target sequence in this assay (P52732 whole entry, looked up): as the sequence (P52732 whole entry, looked up) above
Target sequence in this assay (Q96SW2 whole entry, looked up): as the sequence (Q96SW2 whole entry, looked up) above

HCT-116 [6] = test: Induction of apoptosis in human HCT-116 cells assessed as viable cells at 100 nM incubated for 48 hrs by Annexin V-FITC/PI staining based flow cytometry analysis (reference value: 94.31 %); type: functional; conditions: read-out: Activity
HCT-116 [7] = test: Induction of apoptosis in human HCT-116 cells assessed as necrotic cells at 100 nM incubated for 48 hrs by Annexin V-FITC/PI staining based flow cytometry analysis (reference value: 1.31 %); type: functional
HCT-116 [8] = test: Antitumor activity against human HCT-116 cells xenografted in female BALB/c nu/nu mouse assessed as reduction in tumor weight at 15 mg/kg, ip measured every 2 days for 14 days relative to control; type: functional; set-up: scale not given: the % may be the effect or the level left; conditions: time 14 day
HCT-116 [9] = test: Induction of cell cycle arrest in human HCT-116 cells assessed as accumulation of cells at G1 phase at 100 nM incubated for 24 hrs by RNase A/propidium iodide staining based flow cytometric analysis (reference value: 93.11 %); type: functional
[10] = target: T1, Protein cereblon/Kinesin-like protein KIF11; test: PROTAC activity at CRBN/KSP in human HCT-116 cells assessed as reduction of KSP protein level at 200 nM by Western blot analysis; type: cell-based; conditions: time 6-48 hrs
Target sequence in this assay (P52732 whole entry, looked up): as the sequence (P52732 whole entry, looked up) above
Target sequence in this assay (Q96SW2 whole entry, looked up): as the sequence (Q96SW2 whole entry, looked up) above

HCT-116 [11] = test: Induction of cell cycle arrest in human HCT-116 cells assessed as accumulation of cells at S phase at 100 nM incubated for 24 hrs by RNase A/propidium iodide staining based flow cytometric analysis (reference value: 2.84 %); type: functional
MDA-MB-231 = test: Antiproliferative activity against human MDA-MB-231 cells assessed as inhibition of cell proliferation measured after 72 hrs by CCK8 assay; type: functional, cell-based; conditions: MDA-MB-231, 72 h
HCT-116 [12] = test: Induction of apoptosis in human HCT-116 cells assessed as late apoptotic cells at 10 nM incubated for 48 hrs by Annexin V-FITC/PI staining based flow cytometry analysis (reference value: 1.36 %); type: functional
HCT-116 [13] = test: Antitumor activity against human HCT-116 cells xenografted in female BALB/c nu/nu mouse assessed as reduction in tumor weight at 7.5 mg/kg, ip measured every 2 days for 14 days relative to control; type: functional; set-up: scale not given: the % may be the effect or the level left; conditions: time 14 day
[14] = target: T1, Protein cereblon/Kinesin-like protein KIF11; test: PROTAC activity at CRBN/KSP in human HCT-116 cells assessed as induction of KSP degradation at 500 nM incubated for 48 hrs by Western blot analysis relative to control; type: cell-based
Target sequence in this assay (P52732 whole entry, looked up): as the sequence (P52732 whole entry, looked up) above
Target sequence in this assay (Q96SW2 whole entry, looked up): as the sequence (Q96SW2 whole entry, looked up) above

HCT-116 [15] = test: Induction of cell cycle arrest in human HCT-116 cells assessed as accumulation of cells at G2/M phase at 10 nM incubated for 24 hrs by RNase A/propidium iodide staining based flow cytometric analysis (reference value: 4.05 %); type: functional
HCT-116 [16] = test: Induction of cell cycle arrest in human HCT-116 cells assessed as accumulation of cells at G1 phase at 10 nM incubated for 24 hrs by RNase A/propidium iodide staining based flow cytometric analysis (reference value: 93.11 %); type: functional
HCT-116 [17] = test: Induction of apoptosis in human HCT-116 cells assessed as early apoptotic cells at 10 nM incubated for 48 hrs by Annexin V-FITC/PI staining based flow cytometry analysis (reference value: 3.02 %); type: functional
HCT-116 [18] = test: Antitumor activity against human HCT-116 cells xenografted in female BALB/c nu/nu mouse assessed as reduction in tumor volume at 15 mg/kg, ip measured every 2 days for 14 days relative to control; type: functional; set-up: scale not given: the % may be the effect or the level left; conditions: time 14 day
HCT-116 [19] = test: Antitumor activity against human HCT-116 cells xenografted in female BALB/c nu/nu mouse assessed as reduction in tumor volume at 7.5 mg/kg, ip measured every 2 days for 14 days relative to control; type: functional; set-up: scale not given: the % may be the effect or the level left; conditions: time 14 day
A549 = test: Antiproliferative activity against human A549 cells assessed as inhibition of cell proliferation measured after 72 hrs by CCK8 assay; type: functional, cell-based; conditions: A549, 72 h
HCT-116 [20] = test: Induction of apoptosis in human HCT-116 cells assessed as late apoptotic cells at 100 nM incubated for 48 hrs by Annexin V-FITC/PI staining based flow cytometry analysis (reference value: 1.36 %); type: functional
[21] = Toxicity in female BALB/c nu/nu nude mouse xenografted with human HCT-116 cells assessed as body weight loss at 7.5 to 15 mg/kg, ip measured every 2 days for 14 days; type: organism-based; conditions: in vivo, 336 h, dose 7.5-15 mg/kg, time 14 day
HCT-116 [22] = test: Induction of cell cycle arrest in human HCT-116 cells assessed as accumulation of cells at G2/M phase at 100 nM incubated for 24 hrs by RNase A/propidium iodide staining based flow cytometric analysis (reference value: 4.05 %); type: functional
[23] = target: T1, Protein cereblon/Kinesin-like protein KIF11; test: PROTAC activity at CRBN/KSP in human HCT-116 cells assessed as induction of KSP degradation at 200 nM pretreated with MLN4924 for 2 hrs followed by compound addition for 24 hrs by Western blot analysis; type: cell-based
Target sequence in this assay (P52732 whole entry, looked up): as the sequence (P52732 whole entry, looked up) above
Target sequence in this assay (Q96SW2 whole entry, looked up): as the sequence (Q96SW2 whole entry, looked up) above

HCT-116 [24] = test: Induction of apoptosis in human HCT-116 cells assessed as early apoptotic cells at 100 nM incubated for 48 hrs by Annexin V-FITC/PI staining based flow cytometry analysis (reference value: 3.02 %); type: functional
HCT-116 [25] = test: Induction of cell cycle arrest in human HCT-116 cells assessed as accumulation of cells at S phase at 10 nM incubated for 24 hrs by RNase A/propidium iodide staining based flow cytometric analysis (reference value: 2.84 %); type: functional
HCT-116 [26] = test: Antiproliferative activity against human HCT-116 cells assessed as inhibition of cell proliferation measured after 72 hrs by CCK8 assay; type: functional, cell-based; conditions: HCT-116, 72 h

With `COc1ccc(C2(SC[C@H](N)C(=O)NCCCCCCCCNC(=O)COc3cccc4c3C(=O)N(C3CCC(=O)NC3=O)C4=O)c3ccccc3C=Cc3ccccc32)cc1` (some centres undefined) the Activity (HCT-116 [1]) was 13.67%, the viability at 0.01 µM (HCT-116 [2]) was 57.9% and the Activity [3] was “Not active; Compound Induced Ksp Degradation In Mediated Through Ubiquitin-Proteosome System”. For the same compound, the Activity [4] was “Dose-dependent-effect”, the DC50 [4] was 115 nM and the Emax [5] was 90%. For the same compound, the viability at 0.1 µM (HCT-116 [6]) was 29.1%, the Activity (HCT-116 [7]) was 14.98% and the Activity (HCT-116 [8]) was 99%. The Activity (HCT-116 [9]) was 9.98%, the Activity [10] was “Time-dependent-effect; Considerable Ksp Degradation Noticed Within 6 Hrs” and the Activity (HCT-116 [11]) was 14.97%. For the same compound, the IC50 (MDA-MB-231) was 35.4 nM, the Activity (HCT-116 [12]) was 14.96% and the Activity (HCT-116 [13]) was 97%. The Activity [14] was 82.1%, the Activity (HCT-116 [15]) was 14.79% and the Activity (HCT-116 [16]) was 75.34%. It also gave an Activity (HCT-116 [17]) of 13.51%, an Activity (HCT-116 [18]) of 98% and an Activity (HCT-116 [19]) of 91%. For the same compound, the IC50 (A549) was 160 nM, the Activity (HCT-116 [20]) was 25.55% and the Activity [21] was “Non-toxic”. For the same compound, the Activity (HCT-116 [22]) was 75.05%, the Activity [23] was “Not active; Compound Induced Ksp Degradation In Mediated Through Ubiquitin-Proteosome System” and the Activity (HCT-116 [24]) was 30.35%. The Activity (HCT-116 [25]) was 9.87% and the IC50 (HCT-116 [26]) was 10.2 nM.
